# Data: paper PMC12048447, “PANTAX: a phase Ib clinical trial of the efflux pump inhibitor SCO-101 in combination with gemcitabine and nab-paclitaxel in non-resectable or metastatic pancreatic cancer” (Investigational New Drugs, 2025)
# Assays:
# PANC-1-Pac cells = assay: MTT cell viability and ZIP synergy in paclitaxel-resistant PANC-1-Pac cells; assay type: cell-based, human; details: for ZIP synergy score with paclitaxel: PANC-1-Pac cells, score above 10 indicates synergy
# Description: (§1) A paclitaxel-sensitive human PDAC cell line, PANC-1, was obtained (ATCC, CRL-1469) and the derived paclitaxel-resistant PANC-1-Pac cell line was established by gradually increasing concentrations of paclitaxel over a period of 2–4 months. Standard MTT and crystal violet assays were applied to evaluate the effect of treatment with either combinations of SCO-101 and paclitaxel or SRPK1-inhibitor and paclitaxel. Details are presented in the Online Resource.
# Statistical analyses were mainly descriptive and included mean, median, range, and 95% CIs. Kaplan–Meier plots were constructed using Stata version 18 (StataCorp, 2023). In the preclinical study, the zero interaction potency (ZIP) synergy score was calculated as described by Yadav et al., to quantify the deviation from the expectation of zero interaction between drugs. A ZIP synergy score above 10 indicates synergy.
# as §1, with “line PANC-1” for “line, PANC-1,”, “2-4” for “2–4”, “SCO-101/paclitaxel” for “SCO-101 and paclitaxel”, “SRPK1 inhibitor/paclitaxel.” for “SRPK1-inhibitor and paclitaxel. Details are presented in the Online Resource.”
# The selection began at 1 nM, increased to 2 nM and 4 nM, and ended at 8 nM. For each drug concentration the cells were kept for three passages. To evaluate the effect of the treatment either a Crystal Violet assay or MTT (3-(4,5-dimethylthiazol-2-yl)-2,5-diphenyltetrazolium bromide) assay were applied.
# The MTT was conducted according to standard conditions. In short, cells were seeded at a density of 7,000 cells/well into a 96-well. One day after seeding, the cells were experimentally treated. Control conditions consisted of either growth medium (‘untreated’) or DMSO diluted in growth medium. All treatments were performed in triplicates. The cells were then kept in the CO2 incubator at 37 °C for 72 hours and plates were incubated with 100μl 1:10 MTT (0.5 mg/ml dissolved in phosphate buffered saline) for 3 hours and hereafter stopped using 100μl/well stop buffer (50g Sodium Dodecyl Sulphate, 245 mL MiliQ H2O, 5mL 1.0 N HCl was added to dissolve the formazan crystals overnight. Optical densities were measured at 570 and 670 nm.
# Experiments with 4 different concentrations of either SCO-101 or paclitaxel and their combinations were applied to test for synergy among these two compounds in both the PANC-1 parental and -Paclitaxel resistant cells. SCO-101 was applied in 10, 20, 40 and 50 µM whereas paclitaxel was tested in 5, 10, 15 and 20 nM for a total of 144 h, where drug was only present in the first 72h (sFig 2). The SRPK1 inhibitor SPHINX31 was tested at 0.1; 0.5; 1 and 5 µM. The SRPK1 inhibitor SRPIN was tested at 1; 5; 10 and 50 µM. Both inhibitors were tested in combination with 5, 10, 15 and 20 nM Paclitaxel.
# PANC-1-Pac cells treated with paclitaxel and SRPIN340 with four different concentrations of each for a total of 144 hours. Cell viability was evaluated by MTT assays and reported as percentage of untreated control (medium). Error bars indicate percentage standard deviation.
# PDAC patients [1] = test system: PDAC patients; design: method as in PMID 20107864; details: phase II trial; cited from earlier work
# PDAC patients [2] = test system: PDAC patients; design: method as in PMID 16034525; details: clinical phase II study; cited from earlier work
# [3] = test system: patients with metastatic PDAC; design: method as in PMID 24131140; details: MPACT phase III; cited from earlier work
smiles,measurement,setting,value
O=C(Nc1cc(C(F)(F)F)ccc1N1CCN(Cc2ccccn2)CC1)c1ccc(-c2ccncc2)o1 [SPHINX31],ZIP synergy score with paclitaxel,PANC-1-Pac cells; SPHINX31 + paclitaxel for 144 h,57.037
O=c1c(-c2ccc(O)cc2)coc2cc(O)cc(O)c12 [genistein],effect when added to erlotinib and Gem,PDAC patients [1],no clear effect on survival
CC(=O)O[C@H]1C(=O)[C@@]2(C)[C@H]([C@H](OC(=O)c3ccccc3)[C@]3(O)C[C@H](OC(=O)[C@H](O)[C@@H](NC(=O)c4ccccc4)c4ccccc4)C(C)=C1C3(C)C)[C@]1(OC(C)=O)CO[C@@H]1C[C@@H]2O [paclitaxel],"effect on PANC-1-Pac cells (cell viability), drug alone",PANC-1-Pac cells; 72 h with drug + 72 h fresh media,dose-dependent effect
same,resistant phenotype to paclitaxel relative to parental PANC-1 control cell line,"PANC-1-Pac cells; PANC-1-Pac vs PANC-1, MTT, 72 hours",five times higher
Cc1ccc(-c2cc(C(F)(F)F)nn2-c2ccc(S(N)(=O)=O)cc2)cc1 [celecoxib],effect when combined with Gem and cisplatin,PDAC patients [2],no apparent effect
O=C(Nc1cc(C(F)(F)F)ccc1N1CCCCC1)c1ccncc1 [SRPIN340],ZIP synergy score with paclitaxel,"PANC-1-Pac cells; SRPIN340 + paclitaxel, 72 h with drug + 72 h fresh media",21.4
"Nc1ccn([C@@H]2O[C@H](CO)[C@@H](O)C2(F)F)c(=O)n1 [Gem, gemcitabine]",median overall survival (mOS),[3],6.7 months
same,objective response rate (ORR),[3],7%
